Here are results for seven compounds from patent US20250186452A1, “NOVEL USE OF QUINOLINE COMPOUND” (TARAPEUTICS SCIENCE INC., priority 2022, published 2025).

One data set deals with MC38 cells. As to the kind of experiment: In vivo efficacy in MC38 cell tumor transplantation mouse model. The conditions noted are these: 50 mg/kg oral once a day. As for the experimental part:
(§1) In this example, the experimental effects of Compound 2 and the control compound PLX3397 (purchased from MedChem Express, China) in MC38 and 4T1 mouse models were tested respectively.
(§2) The experimental procedure was as follows: • (1) C57BL/6J male mice for use as MC38 transplanted tumor model and Balb/c male mice for use as 4T1 transplanted tumor model, which were 6 weeks old, were purchased from GemPharmatech Co., Ltd, Jiangsu. All the above mice were raised in an SPF laboratory, and the drinking water and padding had been sterilized by high pressure sterilization. All operations related to mice were performed under sterile conditions. • (2) On day 0, approximately 1×10^6 MC38 cells (purchased from ATCC) were injected subcutaneously into the left back of each of the C57BL/6J mice, and approximately 1×10^6 4T1 cells (purchased from ATCC) were injected subcutaneously into the left back of each of the Balb/c mice. • (3) For the MC38 mouse model, starting from the 6th day, the corresponding mice were orally administered with methylcellulose (HKI) (purchased from China National Pharmaceutical Group Corporation) solvent once a day (5 mice); Compound 2 at a dose of 50 mg/kg mouse weight once a day (5 mice); PLX3397 at a dose of 50 mg/kg mouse weight once a day (5 mice). For the 4T1 mouse model, starting from the 6th day, the corresponding mice were orally administered with 10% HS-15 (purchased from BASF, Germany) solvent (5 mice); Compound 2 at a dose of 50 mg/kg mouse weight once a day (5 mice); PLX3397 at a dose of 50 mg/kg mouse weight once a day (5 mice). • (4) Starting from the 6th day, the length/width of the subcutaneous tumor was measured with a vernier caliper every day, and the weight of the mice was recorded every day to determine the effects of Compound 2 and control compound PLX3397 on the weight of mice in different model mice. The results are shown in FIGS. 3 and 6. • (5) The growth trends of subcutaneous tumors in mice of different models were statistically analyzed. The tumor volume was calculated using the following method: length×width×width/2 mm^3. The results are shown in FIGS. 4 and 7. • (6) Isolation of tumor-infiltrating lymphocytes: Tumor tissue was first minced (tissue block less than 1 mm^3) with a surgical blade, resuspended in 6 ml of digestion solution (collagenase IV and 0.005% DNaseI enzyme, both purchased from Sigma, USA), and the mixture was transferred to a 15-ml centrifuge tube. The centrifuge tube was then placed in a shaker at 37° C. and digested with shaking at 220 r/min for 2 hours. The cells were sieved through a 200-mesh sieve and collected in a 50-ml centrifuge tube, and centrifuged at 1500 rpm for 10 minutes. The supernatant was then discarded, and 10 ml of DMEM medium (10% FBS) (purchased from GIBCO, USA) was added to the tube to terminate the digestion. The tube was placed in a centrifuge, and centrifuged at 1500 rpm for another 10 minutes. The supernatant was discarded. At the same time, Percoll separation solution (purchased from Millipore, USA) was prepared, and 90% Percoll separation working solution was prepared using 10×PBS. To a 15 ml centrifuge tube, 3-4 ml of 70% Percoll separation solution was added. The cells were resuspended in 4 ml of 40% Percoll separation solution, and the cell mixture was added to the 70% Percoll separation solution. The centrifuge tube was placed in a centrifuge and subjected to density gradient centrifugation at 25° C., 1260 g, for 30 minutes (speed up 5, speed down 0). After the centrifugation, the centrifuge tube was placed on a centrifuge tube rack, the middle leukocyte layer was aspirated with a pipette, and added to 10 ml of PBS, they were mixed well and placed in a centrifuge, and centrifuged at 1500 rpm. The cell supernatant was discarded after 10 min and the cells were resuspended in 5 ml of PBS, centrifuged at 1500 rpm for another 10 min, and the washing process was repeated once. The cells obtained were leukocytes in the tumor tissue. […]

The test system of a further data set is 4T1 cells. As to the kind of experiment: In vivo efficacy in 4T1 cell tumor transplantation mouse model. The note with it: 4T1 model, 50 mg/kg oral once a day. As for the experimental part: as §1, §2
Another data set has as its target T1, TEL-CSF1R-BaF3 (Homo sapiens, UniProt P07333).
T1 construct: expressed in transfected cells; host or cells: mouse BaF3 cells (ATCC), retroviral transduction with MSCV-Puro vector, IL-3 withdrawn; the other entry of the earlier key: ETV6 (P41212, Transcription factor ETV6)
T1 sequence (P07333 582-910 limits assumed): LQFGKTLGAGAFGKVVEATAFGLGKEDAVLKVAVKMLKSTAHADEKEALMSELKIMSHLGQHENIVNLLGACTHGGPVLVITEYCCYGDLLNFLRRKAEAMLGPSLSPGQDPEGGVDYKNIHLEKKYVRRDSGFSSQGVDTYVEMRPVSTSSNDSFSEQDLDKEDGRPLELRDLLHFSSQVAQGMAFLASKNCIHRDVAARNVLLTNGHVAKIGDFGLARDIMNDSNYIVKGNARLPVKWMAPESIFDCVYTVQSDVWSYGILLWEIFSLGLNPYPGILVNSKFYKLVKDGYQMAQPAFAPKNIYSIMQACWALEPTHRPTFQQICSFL
Briefly: Proliferation of TEL-CSF1R-BaF3 cells (CCK-8, 72 hours). The conditions noted are these: 72 hours incubation, CCK-8. Type of data set: cell-based. How it is done:
(§3) The incubated cells were detected by CCK-8 (purchased from MedChem Express, China) cell viability detection kit (CCK-8 can be reduced by dehydrogenases in living cells to a highly water-soluble yellow formazan product, and the amount of the generated formazan product is proportional to the number of living cells). The number of living cells was quantified by a microplate reader, and the GI50 for each compound was calculated (the results are shown in Table 2).
The construction method of the TEL-CSF1R-BaF3 cell line (a cell line stably expressing CSF1R kinase) was as follows: the sequence of human CSF1R kinase region was amplified by PCR and inserted into the MSCV-Puro vector (Clontech) with an N-terminal TEL fragment, and stably transferred into mouse BaF3 cells (purchased from ATCC, USA) by a retroviral method, and IL-3 growth factor was removed, finally a cell line dependent on CSF1R transferred protein was obtained.

The subject of the next data set is M-NSF-60. As to the kind of experiment: Proliferation of M-NSF-60 cells with M-CSF (CCK-8, 72 hours). In kind it is cell-based, mouse. The note with it: Mus musculus; M-CSF 50 ng/ml in medium, 72 hours incubation, CCK-8; read-out: M-NSF-60 (GI50/μM). As for the experimental part:
as §3

Take `FC(F)(F)c1ccc(CNc2ccc(Cc3c[nH]c4ncc(Cl)cc34)cn2)cn1` [PLX3397, reference compound]: the “toxicity (mouse body weight)” value in the data set on MC38 cells (FIG. 3) and in the data set with 4T1 cells (FIG. 6) was “no obvious toxicity” in each case. Besides, the “inhibition effect of mouse tumors” value with MC38 cells (FIG. 4) and in the data set with 4T1 cells (FIG. 7) was “good inhibition effect of mouse tumors” in each case.
Consider `COc1cc2nccc(Oc3ccc(NC(=O)Cc4ccc(Cl)c(F)c4)cc3)c2cc1OC` [Example 5, N-(4-((6,7-dimethoxyquinolin-4-yl)oxy)phenyl)-2-(4-chloro-3-fluorophenyl)acetamide], for which the GI50 at TEL-CSF1R-BaF3 was 0.001 µM; in the data set with M-NSF-60, 0.035 µM.
With `COc1cc2nccc(Oc3ccc(NC(=O)Cc4ccc(Cl)c(C(F)(F)F)c4)cc3Cl)c2cc1OC` [Example 38, N-(3-chloro-4-((6,7-dimethoxyquinolin-4-yl)oxy)phenyl)-2-(4-chloro-3-(trifluoromethyl)phenyl)acetamide], the GI50 at TEL-CSF1R-BaF3 came to 0.026 µM; in the data set on M-NSF-60 it was 0.32 µM.
Taken in the same sequence, the figures for `COc1cc2nccc(Oc3ccc(NC(=O)Cc4ccc(C(F)(F)F)cc4)c(Cl)c3)c2cc1OC` [Example 7, N-(2-chloro-4-((6,7-dimethoxyquinolin-4-yl)oxy)phenyl)-2-(4-(trifluoromethyl)phenyl)acetamide] were 0.009 µM and 0.03 µM.
Taken in the same sequence, the figures for `COc1cc2nccc(Oc3ccc(NC(=O)Cc4ccc(Cl)c(Cl)c4)cc3)c2cc1OC` [Example 17, N-(4-((6,7-dimethoxyquinolin-4-yl)oxy)phenyl)-2-(3,4-dichlorophenyl)acetamide] were 0.002 µM and 0.042 µM.
Taken in the same sequence, the figures for `COc1cc2nccc(Oc3ccc(NC(=O)Cc4ccc(F)c(F)c4)cc3)c2cc1OC` [Example 12, N-(4-((6,7-dimethoxyquinolin-4-yl)oxy)phenyl)-2-(3,4-difluorophenyl)acetamide] were 0.003 µM and 0.065 µM.
Turning to `COc1cc2nccc(Oc3ccc(NC(=O)Cc4ccc(F)c(C(F)(F)F)c4)cc3)c2cc1OC` [Example 13, N-(4-((6,7-dimethoxyquinolin-4-yl)oxy)phenyl)-2-(4-fluoro-3-(trifluoromethyl)phenyl)acetamide], the GI50 on TEL-CSF1R-BaF3 amounted to 0.002 µM; in the data set on M-NSF-60 it was 0.018 µM.
